Experimental data reported in US12049450B2, “Pyridyloxy-carboxylate derivative and preparation method therefor, herbicidal composition, and use” (Qingdao Kingagroot Chemical Compound Co., Ltd., priority 2018, dated 2024).

How the values were obtained:
Experiment in all cases: Post-emergence test experiment (greenhouse pot, spray at 2-3 leaf stage)
Type in all cases: in vivo
Settings in all cases: 1000 g/ha; post-emergence spray at 2-3 leaf stage; assessed after 3 weeks; fresh weight inhibition rate
[1] = tested on: Abutilon theophrasti
Outline: (§1)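 Weed seeds sown in soil-filled pots in greenhouse, sprayed at 2-3 leaf stage (2 weeks after sowing) with compound in acetone/tween-80 plus methyl oleate emulsible concentrate (1.5 L/ha) diluted in water. Fresh-weight growth inhibition scored after 3 weeks on 0-5 scale (5: >85%, 0: <5%).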

[2] = tested on: Digitaria sanguinalis
Outline: as §1

[3] = tested on: Echinochloa crusgalli
Outline: as §1

[4] = tested on: Galium spurium
Outline: as §1

[5] = tested on: Monochoria vaginalis
Outline: as §1

| SMILES | Activity level (growth inhibition rate) Abutilon theophrasti [1] | Activity level (growth inhibition rate) Digitaria sanguinalis [2] | Activity level (growth inhibition rate) Echinochloa crusgalli [3] | Activity level (growth inhibition rate) Galium spurium [4] | Activity level (growth inhibition rate) Monochoria Vaginalis [5] |
| --- | --- | --- | --- | --- | --- |
| CC(Oc1nc(F)c(Cl)c(N)c1Cl)C(=O)OCc1cccc(Cl)c1Cl (stereo not shown) [Compound 80] | 5 (Level 5: the growth inhibition rate is greater than 85%) | 5 (Level 5: the growth inhibition rate is greater than 85%) | 5 (Level 5: the growth inhibition rate is greater than 85%) | 5 (Level 5: the growth inhibition rate is greater than 85%) | 5 (Level 5: the growth inhibition rate is greater than 85%) |
| CC(Oc1nc(F)c(Cl)c(N)c1Cl)C(=O)SCc1cc(F)cc(Cl)c1 (stereo not shown) [Compound 81] | 5 (Level 5: the growth inhibition rate is greater than 85%) | 5 (Level 5: the growth inhibition rate is greater than 85%) | 5 (Level 5: the growth inhibition rate is greater than 85%) | 5 (Level 5: the growth inhibition rate is greater than 85%) | 5 (Level 5: the growth inhibition rate is greater than 85%) |
| COc1cccc(F)c1CSC(=O)C(C)Oc1nc(F)c(Cl)c(N)c1Cl (stereo not shown) [Compound 84] | 5 (Level 5: the growth inhibition rate is greater than 85%) | 5 (Level 5: the growth inhibition rate is greater than 85%) | 5 (Level 5: the growth inhibition rate is greater than 85%) | 5 (Level 5: the growth inhibition rate is greater than 85%) | 5 (Level 5: the growth inhibition rate is greater than 85%) |
| CC(Oc1nc(F)c(Cl)c(N)c1Cl)C(=O)OCc1cc([N+](=O)[O-])ccc1F (stereo not shown) [Compound 86] | 5 (Level 5: the growth inhibition rate is greater than 85%) | 5 (Level 5: the growth inhibition rate is greater than 85%) | 5 (Level 5: the growth inhibition rate is greater than 85%) | 5 (Level 5: the growth inhibition rate is greater than 85%) | 5 (Level 5: the growth inhibition rate is greater than 85%) |
| CC(Oc1nc(F)c(Cl)c(N)c1Cl)C(=O)SCc1cccc(C(=O)O)c1 (stereo not shown) [Compound 87] | 5 (Level 5: the growth inhibition rate is greater than 85%) | 5 (Level 5: the growth inhibition rate is greater than 85%) | 5 (Level 5: the growth inhibition rate is greater than 85%) | 5 (Level 5: the growth inhibition rate is greater than 85%) | 5 (Level 5: the growth inhibition rate is greater than 85%) |
| CC(Oc1nc(F)c(Cl)c(N)c1Cl)C(=O)OCc1cccc(O)c1 (stereo not shown) [Compound 89] | 5 (Level 5: the growth inhibition rate is greater than 85%) | 5 (Level 5: the growth inhibition rate is greater than 85%) | 5 (Level 5: the growth inhibition rate is greater than 85%) | 5 (Level 5: the growth inhibition rate is greater than 85%) | 5 (Level 5: the growth inhibition rate is greater than 85%) |
| CC(Oc1nc(F)c(Cl)c(N)c1Cl)C(=O)OCc1cccc(N)c1 (stereo not shown) [Compound 90] | 5 (Level 5: the growth inhibition rate is greater than 85%) | 5 (Level 5: the growth inhibition rate is greater than 85%) | 5 (Level 5: the growth inhibition rate is greater than 85%) | 5 (Level 5: the growth inhibition rate is greater than 85%) | 5 (Level 5: the growth inhibition rate is greater than 85%) |
| CC(Oc1nc(F)c(Cl)c(N)c1Cl)C(=O)OCc1ccc(C#N)cc1 (stereo not shown) [Compound 91] | 5 (Level 5: the growth inhibition rate is greater than 85%) | 5 (Level 5: the growth inhibition rate is greater than 85%) | 5 (Level 5: the growth inhibition rate is greater than 85%) | 5 (Level 5: the growth inhibition rate is greater than 85%) | 5 (Level 5: the growth inhibition rate is greater than 85%) |
| CSc1cccc(COC(=O)C(C)Oc2nc(F)c(Cl)c(N)c2Cl)c1 (stereo not shown) [Compound 92] | 5 (Level 5: the growth inhibition rate is greater than 85%) | 5 (Level 5: the growth inhibition rate is greater than 85%) | 5 (Level 5: the growth inhibition rate is greater than 85%) | 5 (Level 5: the growth inhibition rate is greater than 85%) | 5 (Level 5: the growth inhibition rate is greater than 85%) |
| CC(Oc1nc(F)c(Cl)c(N)c1Cl)C(=O)OCc1ccc(N(C)C)cc1 (stereo not shown) [Compound 93] | 5 (Level 5: the growth inhibition rate is greater than 85%) | 5 (Level 5: the growth inhibition rate is greater than 85%) | 5 (Level 5: the growth inhibition rate is greater than 85%) | 5 (Level 5: the growth inhibition rate is greater than 85%) | 5 (Level 5: the growth inhibition rate is greater than 85%) |
| CC(Oc1nc(F)c(Cl)c(N)c1Cl)C(=O)SCc1ccccc1N=[N+]=[N-] (stereo not shown) [Compound 94] | 5 (Level 5: the growth inhibition rate is greater than 85%) | 5 (Level 5: the growth inhibition rate is greater than 85%) | 5 (Level 5: the growth inhibition rate is greater than 85%) | 5 (Level 5: the growth inhibition rate is greater than 85%) | 5 (Level 5: the growth inhibition rate is greater than 85%) |
| CC(Oc1nc(F)c(Cl)c(N)c1Cl)C(=O)SCc1ccc(C#CCF)cc1 (stereo not shown) [Compound 95] | 5 (Level 5: the growth inhibition rate is greater than 85%) | 5 (Level 5: the growth inhibition rate is greater than 85%) | 5 (Level 5: the growth inhibition rate is greater than 85%) | 5 (Level 5: the growth inhibition rate is greater than 85%) | 5 (Level 5: the growth inhibition rate is greater than 85%) |
| CC(Oc1nc(F)c(Cl)c(N)c1Cl)C(=O)OCc1cccc(OCC(F)(F)F)c1 (stereo not shown) [Compound 96] | 5 (Level 5: the growth inhibition rate is greater than 85%) | 5 (Level 5: the growth inhibition rate is greater than 85%) | 5 (Level 5: the growth inhibition rate is greater than 85%) | 5 (Level 5: the growth inhibition rate is greater than 85%) | 5 (Level 5: the growth inhibition rate is greater than 85%) |
| CC(=O)Nc1ccc(CSC(=O)C(C)Oc2nc(F)c(Cl)c(N)c2Cl)cc1 (stereo not shown) [Compound 97] | 5 (Level 5: the growth inhibition rate is greater than 85%) | 5 (Level 5: the growth inhibition rate is greater than 85%) | 5 (Level 5: the growth inhibition rate is greater than 85%) | 5 (Level 5: the growth inhibition rate is greater than 85%) | 5 (Level 5: the growth inhibition rate is greater than 85%) |
| COC(=O)c1ccc(COC(=O)C(C)Oc2nc(F)c(Cl)c(N)c2Cl)cc1 (stereo not shown) [Compound 98] | 5 (Level 5: the growth inhibition rate is greater than 85%) | 5 (Level 5: the growth inhibition rate is greater than 85%) | 5 (Level 5: the growth inhibition rate is greater than 85%) | 5 (Level 5: the growth inhibition rate is greater than 85%) | 5 (Level 5: the growth inhibition rate is greater than 85%) |
| CC(=O)Cc1ccc(COC(=O)C(C)Oc2nc(F)c(Cl)c(N)c2Cl)cc1 (stereo not shown) [Compound 99] | 5 (Level 5: the growth inhibition rate is greater than 85%) | 5 (Level 5: the growth inhibition rate is greater than 85%) | 5 (Level 5: the growth inhibition rate is greater than 85%) | 5 (Level 5: the growth inhibition rate is greater than 85%) | 5 (Level 5: the growth inhibition rate is greater than 85%) |
| CCOCc1cccc(C(C)OC(=O)C(C)Oc2nc(F)c(Cl)c(N)c2Cl)c1 (stereo not shown) [Compound 100] | 5 (Level 5: the growth inhibition rate is greater than 85%) | 5 (Level 5: the growth inhibition rate is greater than 85%) | 5 (Level 5: the growth inhibition rate is greater than 85%) | 5 (Level 5: the growth inhibition rate is greater than 85%) | 5 (Level 5: the growth inhibition rate is greater than 85%) |
